According to patent US9474734B2, “Compounds for treating inflammation and pain” (Olatec Industries LLC, priority 2012, dated 2016):

Tested on: arachidonic acid-induced ear swelling
Test: topical arachidonic acid-induced ear swelling model in mice
Format: in vivo
Details: male ICR mice; topical application 30 min before and 15 min after arachidonic acid; measured at 90 minutes; indomethacin 14 mM (0.1 mg/20 μL), 3-(methylthio)propionitrile 375 mM (1.0 mg/20 μL)
Method: The test compounds, indomethacin (positive control), and vehicle were evaluated for anti-inflammatory activity in a topical arachidonic acid-induced ear swelling model in mice. Male ICR mice weighing 22±2 g were used and randomly divided; each group had 10 mice. Arachidonic Acid (0.5 mg in 20 μl of acetone:ethanol/1:1) was applied topically to the anterior and posterior surfaces of the right ear of each mice. Test substances and vehicle, as listed in Table 1 were similarly applied 30 min before and 15 min after arachidonic acid application. The thickness of the right ear and the left ear was measured and the difference calculated as an indication of the inflammation in the right ear. Ear swelling was measured by a Dyer model micrometer gauge at 60 and 90 minutes after arachidonic acid application as an index of inflammation. Percent inhibition was calculated according to the formula: Ic−It/Ic×100, where Ic and It refers to increase of ear thickness (mm) in control and treated mice, respectively. ANOVA and Dunnett's test were employed to ascertain significant difference between vehicle control and treated groups. Significance is set at P<0.05 level.

SMILES	% Inhibition of ear swelling
CSCCC#N [3-(methylthio)propionitrile]	43%
COc1ccc2c(c1)c(CC(=O)O)c(C)n2C(=O)c1ccc(Cl)cc1 [Indomethacin]	53%
